Data on 1 compound can be found in patent US20210318318A1, “Kinase Activity In Tumors” (Institute For Cancer Research d/b/a The Research Institute …, priority 2018, published 2021).

One assay deals with COV362 cells. The assay can be described thus: Migration assay (xCELLigence RTCA). Type of assay: cell-based, human. To be noted: 1 μM, 24 hour period. On the procedure:
COV362 cells were treated with 1 μM of A-674563 or DMSO and migration monitored over a 24 hour period using the xCELLigence Real-Time Cell Analyzer (RTCA).
Cell migration assays were performed using the xCELLigence RTCA DP Instrument (ACEA Biosciences) in a CIM-Plate 16 (ACEA Biosciences). Complete medium was added to the lower chambers of the CIM-Plate (or serum free medium for negative control). In the upper chambers, 30 μL serum free medium was added to each well and the CIM-Plate was placed in the instrument to equilibrate for 1 hr at 37° C. Following this equilibration step, a background measurement was taken. The CIM-Plate was removed from the instrument, and COV362 cells were added to the upper chambers at 50,000 cells per well in serum free medium. The CIM-Plate was left at 25° C. for 30 minutes to allow the cells to settle at the bottom of the well. The plate was then returned to the instrument, and cell index reads were taken once every 15 minutes for 24 hours. For the siRNA experiment, the cells were transfected 24 hours prior to the start of the assay. For the A-674563 experiment, cells were pretreated with 1 μM inhibitor or DMSO 24 hours prior, and both upper and lower chambers contained 1 μM inhibitor or DMSO.

The target in the next assay is T1, ROCK2 (Homo sapiens, UniProt O75116).
T1 construct: endogenous in cells; host or cells: OVSAHO
The assay can be described thus: MIB/MS kinome profiling of inhibitor-treated OVSAHO cells. Type of assay: cell-based. To be noted: 2 μM, 4 hours. How it is done: (§1) OVSAHO cells were treated with 2 μM of inhibitor for 4 hours and analyzed by MIB/MS. Scatterplot depicts difference in kinase MIB-binding of drug treated relative to control DMSO as determined by Students T-test.
(§2) MIB-based kinome profiling was performed on several of these molecules in HGSOC cells to determine kinome-wide inhibition profiles.
Experiments using MIB/MS were performed as previously described (Duncan et al., Cell, 2012, 149, 307-321; and Kurimchak et al., Cell Reports, 2016, 16, 1273-1286). Briefly, cells or tumors were lysed on ice in buffer containing 50 mM HEPES (pH 7.5), 0.5% Triton X-100, 150 mM NaCl, 1 mM EDTA, 1 mM EGTA, 10 mM sodium fluoride, 2.5 mM sodium orthovanadate, 1× protease inhibitor cocktail (Roche), and 1% each of phosphatase inhibitor cocktails 2 and 3 (Sigma). Particulate was removed by centrifugation of lysates at 13,000 rpm for 10 minutes at 4° C. and filtration through 0.2 μm syringe filters. Protein concentrations were determined by BCA analysis (Thermo). To compare kinome signatures within and across such large sample sizes, a super-SILAC method was designed (Neubert et al., Nat. Meth., 2010, 7, 361-362) consisting of a cocktail of cancer cell lines that encompasses the activity of the “cancer kinome” to be used as a control for individual samples. […] An equal amount of the HKS was added to the non-labeled sample (cell, tumor or normal tissue) providing a quantitative strategy to compare kinome activity/levels across samples, amongst treatments and, importantly, across time. […]
(§3) Proteolytic peptides were resuspended in 0.1% formic acid and separated with a Thermo RSLC Ultimate 3000 on a Thermo Easy-Spray C18 PepMap 75 μm×50 cm C-18 2 μm column with a 240 minute gradient of 4-25% acetonitrile with 0.1% formic acid at 300 nL/min and 50° C. Eluted peptides were analyzed by a Thermo Q Exactive plus mass spectrometer utilizing a top 15 methodology in which the 15 most intense peptide precursor ions were subjected to fragmentation.

For assay [1], the system named is FAK1, MLC and Paxillin phosphorylation; FAK1 and CHEK1 protein levels. The assay can be described thus: Western blot of signaling in inhibitor-treated HGSOC cells. The class given is cell-based, human. The note with it: 48 hours. On the procedure:
COV362 cells were treated with 0.5, 1 or 3 μM of A-674563 or SB-772077 for 48 hours and signaling monitored by western blot.
Samples were harvested in MIB lysis buffer, subjected to SDS-PAGE […] and transferred to PVDF membranes before western blotting with primary antibodies. For pMYPT and pMLC blots, cells were harvested in a buffer containing 1% (w/v) SDS, 50 mM Tris pH 7.5 supplemented with protease and phosphatase inhibitors buffer and were passed through QIAshredder columns (Qiagen, 79654), (Unbekandt et al., Cell Commun. Signal., 2014, 12, 54). For the list of primary antibodies used, see Table 4. Secondary HRP-anti-rabbit and HRP-anti-mouse were obtained from ThermoFisher Scientific. SuperSignal West Pico and Femto Chemiluminescent Substrates (Thermo) were used to visualize blots.
In general terms: In western blotting, separated proteins are transferred to a membrane and probed.

The target of a further assay is MRCKA (Homo sapiens, UniProt Q5VT25). In words: MIB/MS kinome profiling of inhibitor-treated OVSAHO cells. The class given is cell-based. More on the design: endogenous in cells; host or cells: OVSAHO. The note with it: 2 μM, 4 hour treatment. How it is done:
OVSAHO cells were treated with inhibitors at a dose of 2 μM for 4 hours and kinase inhibition profiles determined by MIB/MS. Bar graph depicts % of kinase bound to MIBs relative to DMSO control as determined by label free quantitation.
as §1, §2
Experiments using MIB/MS were performed as previously described (Duncan et al., Cell, 2012, 149, 307-321; and Kurimchak et al., Cell Reports, 2016, 16, 1273-1286). Briefly, cells or tumors were lysed on ice in buffer containing 50 mM HEPES (pH 7.5), 0.5% Triton X-100, 150 mM NaCl, 1 mM EDTA, 1 mM EGTA, 10 mM sodium fluoride, 2.5 mM sodium orthovanadate, 1× protease inhibitor cocktail (Roche), and 1% each of phosphatase inhibitor cocktails 2 and 3 (Sigma). Particulate was removed by centrifugation of lysates at 13,000 rpm for 10 minutes at 4° C. and filtration through 0.2 μm syringe filters. Protein concentrations were determined by BCA analysis (Thermo). To compare kinome signatures within and across such large sample sizes, a super-SILAC method was designed (Neubert et al., Nat. Meth., 2010, 7, 361-362) consisting of a cocktail of cancer cell lines that encompasses the activity of the “cancer kinome” to be used as a control for individual samples. Five cancer cell lines were selected from the NCI-60 panel (UACC257, MOLT4, COL0205, ACHN and PC3) that differed in their origin, gene expression patterns and mutation status. The cancer cell lines were labeled using SILAC and mixed equally providing a diverse SILAC ([^13C6,^15N4] arginine (Arg^10) and […] (Lys^8)) heavy kinome reference standard (HKS) to be used repeatedly in kinome profiling assays. An equal amount of the HKS was added to the non-labeled sample (cell, tumor or normal tissue) providing a quantitative strategy to compare kinome activity/levels across samples, amongst treatments and, importantly, across time. […]
as §3

Molecules are shown by their SMILES.

T1 sequence (O75116 whole entry): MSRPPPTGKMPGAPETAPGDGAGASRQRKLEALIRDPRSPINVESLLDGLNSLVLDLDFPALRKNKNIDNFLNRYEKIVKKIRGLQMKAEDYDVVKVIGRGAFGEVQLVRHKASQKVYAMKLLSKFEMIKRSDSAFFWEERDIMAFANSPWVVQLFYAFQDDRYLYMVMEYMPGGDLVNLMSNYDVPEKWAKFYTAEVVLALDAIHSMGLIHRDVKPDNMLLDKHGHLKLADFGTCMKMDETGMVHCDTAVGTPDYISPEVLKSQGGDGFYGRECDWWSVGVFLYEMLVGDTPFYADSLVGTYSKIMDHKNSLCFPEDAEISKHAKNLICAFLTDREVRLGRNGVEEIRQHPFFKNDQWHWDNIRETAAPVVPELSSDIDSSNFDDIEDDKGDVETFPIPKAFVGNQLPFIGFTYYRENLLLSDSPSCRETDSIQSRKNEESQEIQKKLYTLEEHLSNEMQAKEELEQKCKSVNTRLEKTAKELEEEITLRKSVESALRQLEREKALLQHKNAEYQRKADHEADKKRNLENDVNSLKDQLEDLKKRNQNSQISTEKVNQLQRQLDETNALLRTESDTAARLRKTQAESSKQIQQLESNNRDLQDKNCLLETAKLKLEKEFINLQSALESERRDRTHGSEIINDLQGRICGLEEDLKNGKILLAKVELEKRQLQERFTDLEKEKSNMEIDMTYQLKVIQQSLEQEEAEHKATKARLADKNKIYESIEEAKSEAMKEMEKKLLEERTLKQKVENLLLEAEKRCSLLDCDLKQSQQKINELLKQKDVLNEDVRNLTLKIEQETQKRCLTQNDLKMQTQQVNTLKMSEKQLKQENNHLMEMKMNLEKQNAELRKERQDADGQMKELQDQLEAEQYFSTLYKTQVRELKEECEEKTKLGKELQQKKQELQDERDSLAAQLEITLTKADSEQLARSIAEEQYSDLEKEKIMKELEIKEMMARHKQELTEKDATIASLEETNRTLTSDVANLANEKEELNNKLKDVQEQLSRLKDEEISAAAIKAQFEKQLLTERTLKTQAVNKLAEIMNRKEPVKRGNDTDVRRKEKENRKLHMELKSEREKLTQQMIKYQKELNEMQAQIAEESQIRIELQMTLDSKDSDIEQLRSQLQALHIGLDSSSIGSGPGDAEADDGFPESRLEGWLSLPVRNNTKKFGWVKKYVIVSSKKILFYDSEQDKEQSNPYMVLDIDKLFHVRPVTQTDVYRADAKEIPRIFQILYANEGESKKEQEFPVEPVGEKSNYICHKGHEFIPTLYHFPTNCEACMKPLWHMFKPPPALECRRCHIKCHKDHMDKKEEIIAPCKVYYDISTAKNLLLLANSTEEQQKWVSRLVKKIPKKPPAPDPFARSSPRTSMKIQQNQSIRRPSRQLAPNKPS
MRCKA, sequence (Q5VT25 whole entry): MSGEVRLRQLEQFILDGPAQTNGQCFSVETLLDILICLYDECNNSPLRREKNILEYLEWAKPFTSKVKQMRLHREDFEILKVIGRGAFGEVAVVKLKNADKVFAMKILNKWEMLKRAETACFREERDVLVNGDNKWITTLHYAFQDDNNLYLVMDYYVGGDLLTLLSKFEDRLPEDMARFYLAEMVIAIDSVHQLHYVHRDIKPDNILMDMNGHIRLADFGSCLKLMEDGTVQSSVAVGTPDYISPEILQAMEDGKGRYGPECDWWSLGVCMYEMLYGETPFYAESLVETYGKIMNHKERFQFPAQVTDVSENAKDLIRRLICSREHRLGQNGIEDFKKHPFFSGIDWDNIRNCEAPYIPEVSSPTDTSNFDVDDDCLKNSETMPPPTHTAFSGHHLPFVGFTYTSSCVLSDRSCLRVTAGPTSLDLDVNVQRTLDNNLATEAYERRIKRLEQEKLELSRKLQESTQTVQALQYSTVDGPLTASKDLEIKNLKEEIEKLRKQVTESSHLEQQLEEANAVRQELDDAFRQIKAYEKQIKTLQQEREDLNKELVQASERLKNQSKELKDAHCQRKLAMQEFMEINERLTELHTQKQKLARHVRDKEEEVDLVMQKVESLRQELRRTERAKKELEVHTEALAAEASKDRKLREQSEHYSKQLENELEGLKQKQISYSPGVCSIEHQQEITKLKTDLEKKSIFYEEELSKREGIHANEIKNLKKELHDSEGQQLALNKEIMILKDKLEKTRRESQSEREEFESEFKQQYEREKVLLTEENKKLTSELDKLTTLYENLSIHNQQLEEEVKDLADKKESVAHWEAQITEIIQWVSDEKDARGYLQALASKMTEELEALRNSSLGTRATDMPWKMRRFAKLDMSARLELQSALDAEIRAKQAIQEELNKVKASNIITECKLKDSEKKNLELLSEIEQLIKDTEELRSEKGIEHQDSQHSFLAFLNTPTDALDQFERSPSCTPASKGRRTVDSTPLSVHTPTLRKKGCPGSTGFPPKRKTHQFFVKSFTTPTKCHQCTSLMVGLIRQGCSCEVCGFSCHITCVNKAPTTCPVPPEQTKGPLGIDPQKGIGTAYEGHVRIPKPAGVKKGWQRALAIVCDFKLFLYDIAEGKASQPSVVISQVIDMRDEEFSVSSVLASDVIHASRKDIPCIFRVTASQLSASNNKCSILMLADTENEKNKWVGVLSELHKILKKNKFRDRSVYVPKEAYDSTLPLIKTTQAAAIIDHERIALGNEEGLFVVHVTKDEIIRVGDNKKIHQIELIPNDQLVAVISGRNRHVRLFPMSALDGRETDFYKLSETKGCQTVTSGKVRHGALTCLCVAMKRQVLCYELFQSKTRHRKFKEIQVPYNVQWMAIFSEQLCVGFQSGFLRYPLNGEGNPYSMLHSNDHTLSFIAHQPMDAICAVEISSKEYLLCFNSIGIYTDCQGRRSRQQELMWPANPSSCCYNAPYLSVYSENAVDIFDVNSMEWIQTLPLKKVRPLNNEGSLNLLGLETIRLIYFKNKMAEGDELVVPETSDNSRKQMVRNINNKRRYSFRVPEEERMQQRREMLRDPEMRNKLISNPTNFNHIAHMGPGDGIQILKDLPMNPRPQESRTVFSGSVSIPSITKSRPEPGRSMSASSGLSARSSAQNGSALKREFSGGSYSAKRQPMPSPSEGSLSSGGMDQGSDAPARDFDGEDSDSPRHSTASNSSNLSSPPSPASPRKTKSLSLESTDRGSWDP

In the case of `Cc1[nH]nc2ccc(-c3cncc(OC[C@@H](N)Cc4ccccc4)c3)cc12` [A-674563], the cell migration result with COV362 cells is given as “reduced cell migration”. Further, the “MIB-binding of ROCK2” value at ROCK2 is on record as “did not influence”. The “FAK1 and CHEK1 protein levels” value in assay [1] (HGSOC (COV362) cells, 0.5, 1 or 3 μM) is given as “uniquely reduced”. The “FAK1, MLC and Paxillin phosphorylation” value in assay [1] (HGSOC (COV362) cells, increasing doses 0.5, 1 or 3 μM) was “inhibited”. The “MIB-binding of MRCKA relative to DMSO” value at MRCKA is “greatest reduction”.
